Laboratory results taken from patent publication US20230355553A1, “COMPOSITIONS AND METHODS FOR TREATING AND/OR PREVENTING OCULAR DISORDERS” (University of Virginia Patent Foundation, priority 2020, published 2023).

Legend:
[1] = system: Alu RNA-induced RPE degeneration; experiment: Alu RNA-induced RPE degeneration in mice, racemic fluoxetine vs enantiomers (fundus photos); format: in vivo, mouse; details: subretinal Alu RNA 180 ng, 172 ng drug intravitreous, 7 days
Description: In vitro transcribed Alu RNA (SEQ ID NO: 1; 180 ng) was injected into the subretinal space of mice and 172 ng racemic fluoxetine (TCI Chemicals, Portland, Oregon, United States of America) or enantiomers of fluoxetine (Santa Cruz Biotechnology, Inc., Dallas, Texas, United States of America) was injected into the vitreous humor. Fundus photos were captured 7 days later. […] Arrowheads show the extent and intensity of degeneration of the retinal pigmented epithelium (RPE).

[2] = system: Alu RNA-induced RPE degeneration; experiment: Alu RNA-induced RPE degeneration in mice (ZO-1-stained RPE flat mounts); format: in vivo, mouse; details: subretinal Alu RNA 300 ng, drug 1 mM in 0.5 µl intravitreous 24 hours before and immediately after, 7 days
Description: Animals. Animal experiments were approved by the University of Virginia (UVA) Institutional Animal Care and Use Committee. C57BL/6J mice (The Jackson Laboratory) were anesthetized with ketamine hydrochloride and xylazine.
The ability of various antidepressant drugs to inhibit Alu RNA (SEQ ID NO: 1) induced RPE degeneration was tested in mice. In vitro transcribed Alu RNA (SEQ ID NO: 1; 300 ng in 1 µl) or vehicle control (PBS) were injected subretinally into mice. Fluoxetine (FLX), Citalopram (CIT), Paroxetine (PAR), Sertraline (SER), Escitalopram (ESC), Venlafaxine (VEN), Imipramine (IMI), Amitriptyline (AMI), Agomelatine (AGO; all from Cayman Chemical Company, Ann Arbor, Michigan, United States of America; 1 mM in 0.5 µl), or PBS was injected into the vitreous humor 24 hours before and immediately after Alu RNA (SEQ ID NO: 1) injections. Animals were euthanized 7 days after Alu RNA (SEQ ID NO: 1) injection, and the eyes were enucleated.
RPE health was assessed by immunofluorescence staining of zonula occludens-1 (ZO-1) on RPE flat mounts. Flat mounts were fixed with 2% paraformaldehyde, stained with rabbit polyclonal antibodies against mouse ZO-1 (Invitrogen; 1:100), and visualized with Alexa-594 (Invitrogen), and imaged using an A1R Nikon confocal microscope. Images were graded as healthy or degenerated in masked fashion. […]

caspase-1 activation [3] = experiment: Western blot of Alu RNA-induced caspase-1 activation in human ARPE19 cells; format: cell-based; details: Alu RNA-transfected human ARPE19 cells, Fluoxetine 10 µM, n = 3 per group
Description: (§1) Cell culture. The human retinal pigment epithelial cell line ARPE-19 (ATCC) was maintained in Dulbecco’s Modified Eagle Medium (DMEM) supplemented with 10% fetal bovine serum (FBS) and standard antibiotics. Mouse bone marrow derived macrophages (BMDMs) were cultured in Iscove’s modified Dulbecco’s media (IMDM) with 10% FBS and 20% L929 supernatants. All cells were maintained at 37° C. in a 5% CO2 environment.
(§2) In order to test for the ability of fluoxetine to inhibit inflammasome activation, cells were transfected with (SEQ ID NO: 1) RNA or mock-transfected for 12 hour and pre-treated with Fluoxetine (10 µM) for 1 hour and again after Alu RNA (SEQ ID NO: 1) transfection. Supernatants were collected and were briefly spun down to remove floating cells. Proteins from the cell-free supernatant were precipitated by adding sodium deoxycholate (0.15% final) followed by adding TCA (7.2% final) and incubating on ice overnight. Samples were spun down at 13000 × g for 30 minutes and pellets were washed 2 times with ice-cold acetone. Precipitated proteins solubilized in 4X LDS Buffer with 2-mercaptoethanol were resolved by SDS-PAGE on NOVEX® brand Tris-Glycine Gels (Invitrogen Corporation, Carlsbad, California, United States of America) and transferred onto Immobilon-FL PVDF membranes (MilliporeSigma, Burlington, Massachusetts, United States of America). […]

[4] = system: amyloid beta-induced RPE degeneration; experiment: Oligomerized amyloid beta-induced RPE degeneration in mice (fundus photos); format: in vivo, mouse; details: subretinal oligomerized amyloid beta, fluoxetine 172 ng intravitreous, 7 days
Description: The ability of fluoxetine to inhibit RPE degeneration induced by oligomerized amyloid beta was also tested. Oligomerized amyloid beta (0.6 micromoles; AnaSpec Inc., Fremont, California, United States of America) was injected into the subretinal space and fluoxetine (172 ng; TCI Chemicals) was injected into the vitreous humor. Fundus photos were captured 7 days later.

secreted IL-18 = experiment: ELISA of secreted cytokine from human ARPE-19 cells; format: cell-based; details: Alu RNA (FIG. 4A), Fluoxetine 10 µM, P < 0.005
cataract formation = experiment: Cataract formation after administration of fluoxetine preparations to the eye; format: in vivo
dry macular degeneration = experiment: Health insurance claims analysis (PearlDiver database) of dry macular degeneration among patients with depression; format: in vivo, human
Description: Data on patients with commercial health insurance was obtained from the PearlDiver Patient Records Database (Colorado Springs, Colorado, United States of America), which captures health care claims and medication usage for persons in the Humana network from 2007 to 2017. These de-identified data are Health Insurance Portability and Accountability Act-compliant and were deemed by the University of Virginia Institutional Review Board (IRB; University of Virginia, Charlottesville, United States of America) as exempt from IRB approval requirements.
Patients were included in the analysis if they had continuous enrollment in the plan for at least 1 year and had at least 2 medical claims of Depression and were at least 50 years of age at baseline. Individuals with pre-existing Dry Macular Degeneration (1 or more medical claims prior to diagnosis of Depression) were excluded. Disease claims were identified by International Classification of Diseases (ICD)-9-CM and ICD-10-CM codes.
Individuals were classified as receiving Fluoxetine if they filled one or more outpatient pharmacy prescriptions for generic or brand versions, either in sole form or as a combination medication, as identified by National Drug Codes of the Food and Drug Administration (FDA) of the United States.
Time to initial diagnosis of Dry Macular Degeneration, which was confirmed by 2 or more medical claims, was the dependent variable for this analysis.
To analyze the risk of Dry Macular Degeneration between those exposed to Fluoxetine and those not exposed to Fluoxetine, an adjusted Cox proportional hazards model was fit. The adjusted model included as covariates age, gender, race, smoking, and body mass index.
The event rates of dry macular degeneration in the general population and in the depression cohort are shown. Fluoxetine use was associated with a crude risk reduction of 28%. P < 0.0001 by χ2 test. Fluoxetine use was associated with a reduction in the hazard of developing dry macular degeneration. P < 0.0001 by likelihood ratio test.

caspase-1 activation [5] = experiment: Western blot of Alu RNA-induced caspase-1 activation in mouse BMDMs; format: cell-based; details: Alu RNA-transfected mouse BMDMs, Fluoxetine 10 µM, n = 3 per group
Description: as §1, §2

secreted IL-1β = experiment: ELISA of secreted cytokine from mouse bone marrow derived macrophages; format: cell-based; details: mouse BMDMs, B2 RNA (FIG. 3B), Fluoxetine 10 µM, P = 0.01
ASC specks = experiment: ASC speck assay in BMDMs; format: cell-based, mouse; details: Alu RNA-transfected BMDMs; Fluoxetine 10 µM pretreatment 2 hours; n = 5; P = 0.006
Description: The ASC speck assay was employed as a measure of inflammasome activation. BMDMs seeded on chambered coverslips (30,000 cells/well) for 12 hours were pretreated with Fluoxetine (10 µM) or 0.1% DMSO (control) for 2 hours. Cells were transfected with Alu RNA (SEQ ID NO: 1) using LIPOFECTAMINE™ 3000 brand transfection reagent (Thermo Fisher Scientific, Waltham, Massachusetts, United States of America) for 12 hours. Coverslips were fixed with 2% paraformaldehyde (15 minutes at room temperature), washed with PBS, permeabilized, blocked with blocking buffer (PBS, 0.1% TX-100, 5% normal goat serum; 1 hour at 4° C.) and incubated with anti-ASC antibody (Adipogen; 1:300) with blocking buffer. Nuclei were stained with DAPI. Slides mounted using FLUOROMOUNT-G® brand mounting medium (SouthernBiotech, Birmingham, Alabama, United States of America) were imaged by confocal microscopy (Nikon A1R). The numbers of specks per 40x field were compared by two-tailed Student’s t test.

Row | Compound | RPE degeneration extent and intensity (fundus photos) [1] | RPE degeneration (percentage of eyes with RPE degeneration) [2] | caspase-1 activation (cleavage of pro-caspase-1 into active caspase-1) (caspase-1 activation [3]) | RPE degeneration extent and intensity (fundus photos) [4] | secreted IL-18 (FIG. 4A) (secreted IL-18) | cataract formation, share of subjects (cataract formation) | Hazard Ratio (95% Confidence Interval) of developing dry macular degeneration (dry macular degeneration; Fluoxetine Use Yes vs. No, multivariate Cox regression corrected for age, gender, race, smoking, body mass index) | crude risk reduction of dry macular degeneration (dry macular degeneration; Fluoxetine use vs no use, P < 0.0001 by χ2 test) [%] | rate of developing dry macular degeneration (Kaplan-Meier) (dry macular degeneration; Fluoxetine use, log rank test P < 0.0001 (FIG. 7)) | Event Rate of dry macular degeneration (dry macular degeneration; Fluoxetine users (Ever), depression cohort) [%] | Dry Macular Degeneration (#) (dry macular degeneration; Fluoxetine users (Ever), depression cohort, age at least 50, 84,603 total patients) | caspase-1 activation (cleavage of pro-caspase-1 into active caspase-1) (caspase-1 activation [5]) | secreted IL-1β (FIG. 3B) (secreted IL-1β) | ASC speck formation (number of specks per 40x field) (ASC specks)
1 | CNCCC(Oc1ccc(C(F)(F)F)cc1)c1ccccc1 (racemic) [Fluoxetine, N-methyl-3-phenyl-3-[4-(trifluoromethyl)phenoxy]propan-1-amine] | reduced the RPE degeneration extent and intensity, although the protection was partial | significantly reduced | reduced | reduced the RPE degeneration extent and intensity | statistically significantly reduced | up to 50% | 0.590 (0.565, 0.616) | 28 | slower rate | 3.5 | 3,000 | reduced | statistically significantly reduced | inhibited
2 | CNCC[C@@H](Oc1ccc(C(F)(F)F)cc1)c1ccccc1 [R-fluoxetine] | more complete protection | – | – | – | – | – | – | – | – | – | – | – | – | –
3 | CNCC[C@H](Oc1ccc(C(F)(F)F)cc1)c1ccccc1 [S-fluoxetine] | more complete protection | – | – | – | – | – | – | – | – | – | – | – | – | –
